The source of these data is patent US11198705B2, “Hybrid Amphotericin B derivatives with reduced toxicity” (priority 2018, dated 2021).

The nature of series [1]: Isothermal titration calorimetry (ITC) sterol binding, ergosterol. Conditions: within detection limits of ITC. An excerpt: (§1) This key discovery opened a path to the rational development of a non-toxic AmB variant. To probe its predicted role in sterol binding, the hydroxyl group was synthetically deleted at the C2′ position on the mycosamine appendage. […] Consistent with the sterol sponge model, this derivative retained good activity against yeast but, most importantly, was nontoxic to human red blood cells and primary (hREC) (FIG. 2B).
(§2) A practical 11-step synthesis of C2′epiAmB using a frontier site-selective acylation method was developed (FIG. 4). Wilcock, B. C. et al., Nat Chem 2012, 4 (12), 996-1003; Uno, B. E. A synthesis enabled understanding of Amphotericin B leading to derivatives with improved therapeutic indices. University of Illinois at Urbana-Champaign, 2014. The sterol binding and cell killing activities was then determined.
A general note: Isothermal titration calorimetry measures the heat released or taken up as one component is titrated into another.

Series [2] in a line: Isothermal titration calorimetry (ITC) sterol binding, cholesterol. The following applies: within detection limits of ITC.
From the text: as §1, §2

The format of series [3] is binding. Conditions: UV-Vis/PCA sponge-sterol titration. From the text: (§3) However, an alternative method was developed for reproducible formation of homogenous AmB and C2′epiAmB sterol sponge aggregates in vitro. Using these preparations, a quantitative UV-Vis and Principle Component (PCA) based assay for determining the apparent KDS for the binding of AmB and C2′epiAmB to ergosterol and cholesterol (FIGS. 5A-D) was developed.
(§4) Biophysical studies support the conclusion that different capacities to bind cholesterol underlie these striking differences in toxicity for the AmBUreas versus C2′epiAmB (FIG. 15). Isothermal titration calorimetry is unable to distinguish between cholesterol binding in these two series. However, a more sensitive and quantitative UV-Vis/PCA based sponge-sterol titration experiments described above (see Example 1) was employed to quantify the binding of a representative AmB urea (AmBAU) to ergosterol and cholesterol. […] It was reasoned that the lack of cholesterol binding in C2′epiAmB to a ligand-selective allosteric effect was caused by epimerization of the C2′stereocenter (see Example 1), and thus predict that the biophysical effects associated with C2′-epimerization should be transposable to other AmB derivatives.

A short description of series [4]: UV-Vis/PCA sterol sponge titration, cholesterol. In kind it is binding.
From the text: as §3, §4

The subject of series [5] is primary human renal epithelial cells (hREC). An excerpt:
As a complementary parallel first step in the screening funnel, the MTC's of all new derivatives will be evaluated against hREC using a WST-8 cell proliferation assay kit as previously described above. The MTC will be determined by calculating the mean of at least two biological replicates.

For the next series, the system named is human red blood cells. In kind it is cell-based.
Series [6] can be described thus: IV toxicity in mice (mortality). In kind it is in vivo.
Series [7] relates to Candida and Aspergillus clinical isolates. The series is described as follows: In vitro antifungal activity, Candida and Aspergillus clinical isolates (Evotec). In kind it is cell-based. Conditions: many Candida and several Aspergillus strains.
The next series deals with A. fumigatus. The series is described as follows: In vitro antifungal activity, A. fumigatus strains (Evotec). In kind it is cell-based.
The subject of series [8] is 40 Aspergillus clinical isolates, including azole-resistant A. fumigatus, A. flavus, and A. terreus. As to the kind of experiment: Antifungal testing, extended panel of 40 Aspergillus clinical isolates (Fungus Testing Laboratory, UT-San Antonio). In kind it is cell-based.
Series [9] has as its system clinically relevant invasive molds. As to the kind of experiment: In vitro antifungal activity, panel of clinically relevant invasive molds (FIG. 8C). In kind it is cell-based. The following applies: many strains, including pan-azole resistant strain F14196.
Series [10] relates to C. albicans. As to the kind of experiment: MIC against C. albicans with and without pre-complexation with ergosterol. In kind it is cell-based. Conditions: sponge pre-complexed with ergosterol. From the text: Anderson, T. M. et al., Nat Chem Biol 2014, 10 (5), 400-6. […] Davis, S. A., et al., Nat Chem Biol 2015, 11 (7), 481-7. To test whether C2′epiAmB primarily kills cells via the same sterol sponge mechanism, the C2′epiAmB sponge was similarly pre-complexed with ergosterol (FIG. 9). […] Thus, C2′epiAmB similarly kills yeast primarily via sterol binding, and, by extension, the new compounds targeted in this application are expected to have a similar barrier to fungal resistance that has been observed for the past 50+ years with AmB.

For series [11], the system named is C. albicans. The series is described as follows: Murine model of invasive candidiasis, single IP injection (FIG. 10). In kind it is in vivo, neutropenic ICR/Swiss mice. From the text: Andes, D. et al., Antimicrobial agents and chemotherapy 2001, 45 (3), 922-6. […] Wiederhold, N. P. et al., Antimicrobial agents and chemotherapy 2006, 50 (2), 469-73.
The subject of series [12] is series of important pathogens (Candida and Aspergillus strains). The series is described as follows: In vitro antifungal activity of C2′epiAmBAU hybrid vs AmB, C2′epiAmB and AmBAU (FIG. 18). In kind it is cell-based. The following applies: A. fumigatus 91, A. fumigatus 1163, and A. fumigatus 1100. From the text: In a key result, synthesis on small scale was accomplished on the first targeted hybrid derivative, C2′epiAmBAU, as per FIG. 17 confirming the feasibility of the route to these natural product analogs. The initial biological analysis of this first C2′epiAmBUrea derivative was very encouraging since a substantial increase in antifungal potency for C2′epiAmBAU relative to C2′epiAmB was observed (FIG. 18).

Series [13] concerns A. fumigatus 91, A. fumigatus 1100. As to the kind of experiment: MIC against A. fumigatus 91 and A. fumigatus 1100. In kind it is cell-based. An excerpt:
The results with C2′epiAmBAU strongly support the prediction that C16 modifications will show improved potency compared to C2′epiAmB. […] Thus, it is expected that hybridizations of C2′epiAmB with other urea side chains will yield similar increases in potency without any mammalian toxicity. If this proves not to be the case, other classes of C16 modifications that also increase potency will be pursed. […] Alternative modifications may be pursed at the mycosamine appendage that the modelling predicts should similarly eliminate the water-bridged C2′OH to C13OH hydrogen bond, e.g., C2′deoxygenation, C2′-halodeoxygenation, or C2′-methyldeoxygenation, and thus eliminate cholesterol binding (see FIGS. 3A and 3B). This study anticipates high doses of non-toxic C2′epiAmBUreas will yield a significant reduction in fungal burden and therefore an increase in survival in QD dosing efficacy studies relative to AmB-deoxycholate (Fungizone®), AmBisome®, C2′epiAmB, voriconazole, and caspofungin.

The test system of another series is yeast. As to the kind of experiment: Activity against yeast / cell killing (FIG. 2). Conditions: fungal vs human cells. In kind it is cell-based.
From the text: as §1, §2

Series [14] in a line: IV toxicity in rats (BUN, ALT/AST, mortality).

≈ marks a conversion by molar mass, not a printed value. A value given as a limit tells only on which side of the number the result lay.

A word on the MIC: it is the smallest concentration in the dilution series that meets the test's criterion for growth inhibition. Low readings indicate inhibition by little substance, high ones a need for much substance. Consider `C[C@@H]1[C@H](O)[C@@H](C)/C=C/C=C/C=C/C=C/C=C/C=C/C=C/[C@H](O[C@@H]2O[C@H](C)[C@@H](O)[C@H](N)[C@H]2O)C[C@@H]2O[C@](O)(C[C@@H](O)C[C@@H](O)[C@H](O)CC[C@@H](O)C[C@@H](O)CC(=O)O[C@H]1C)C[C@H](O)[C@H]2C(=O)O` [C2′epiAmB], for which the “binding of ergosterol by ITC” value in series [1] was “bind ergosterol”. Also, the “binding of cholesterol by ITC” value in series [2] is listed as “not (detectably) cholesterol”. For the same compound, in series [3], the binding to ergosterol result was “retained binding”. Besides, the binding to cholesterol result in series [4] was “no detectable binding”. Besides, the “minimum toxic concentration (MTC) against primary hRECs” value in [5] was greater than 80 µM. Moreover, the “toxicity to primary hREC” value in series [5] is “non-toxic”. Further, the “toxicity to human red blood cells” value in the series on human red blood cells is on record as “non-toxic”. Further, the mortality entry in series [6] (IV, mice, 128 mg/kg (highest dose tested)) is “survived”. Also, in series [6] (up to the highest dose tested), the toxicity to mice entry is “non-toxic”. In addition, the “in vitro antifungal activity” value in series [7] was “good activity”. Moreover, the “potency relative to AmB (less potent)” value is greater than 32 times with A. fumigatus (A. fumigatus AF91); 4 fold in the series with A. fumigatus (A. fumigatus AF293, A1163, and ATC204305); 2-16 times in series [8] (range over 40 Aspergillus clinical isolates). For the same compound, the “average potency relative to AmB (less potent)” value in [8] (average across all 40 strains) is listed as 5.6 fold. Moreover, the antifungal potency result in series [9] is listed as “good antifungal potency”. In addition, the “change in potency upon ergosterol pre-complexation” value with C. albicans [10] is listed as “same reduction in potency”. In the series on C. albicans [11] (16 mg/kg), the fungal burden result was “outstanding reductions in fungal burden”. Besides, the efficacy result with C. albicans [11] (deoxycholate complex, 1, 4, 8, or 16 mg/kg) is “dose-dependent efficacy”. For the same compound, in series [12], the “resistance of strains to compound” value is reported as “complete or nearly complete resistance”. In addition, the MIC in [13] (A. fumigatus 91) was greater than 64 µM; in series [13] (A. fumigatus 1100), 32 µM (≈ 29.6 µg/mL). Further, the cell killing activities result in the series on yeast is given as “kill fungal but not human cells”. Moreover, the toxicity in rats entry in series [14] (17.5 mg/kg (highest tested dose)) is listed as “no such toxicity”. Besides, in series [14] (up to the highest dose tested), the toxicity to rats result is reported as “non-toxic”.
